Data published in article PMC8330742, “New benzothieno[2,3-c]pyridines as non-steroidal CYP17 inhibitors: design, synthesis, anticancer screening, apoptosis induction, and in silico ADME profile studies” (Journal of Enzyme Inhibition and Medicinal Chemistry, 2021).

Columns and labels:
MALME-3M = assay: NCI-60 SRB screen; assay type: cell-based, human; conditions: Homo sapiens, single dose 10^−5 M, read-out: Growth inhibition (%)
HCT-15 = assay: NCI-60 SRB screen; assay type: cell-based, human; conditions: Homo sapiens; HCT-15; single dose 10^−5 M; read-out: Growth inhibition (%)
SK-MEL-2 = assay: NCI-60 SRB screen; assay type: cell-based, human; conditions: Homo sapiens; SK-MEL-2; single dose 10^−5 M; read-out: Growth inhibition (%)
SN12C = assay: NCI-60 SRB screen; assay type: cell-based, human; conditions: Homo sapiens, SN12C; SN 12 C; single dose 10^−5 M; read-out: Growth inhibition (%)
OVCAR-3 = assay: NCI-60 SRB screen; assay type: cell-based, human; conditions: Homo sapiens; OVCAR-3; single dose 10^−5 M; read-out: Growth inhibition (%)
A549/ATCC = assay: NCI-60 SRB screen; assay type: cell-based, human; conditions: Homo sapiens, single dose 10^−5 M, read-out: Growth inhibition (%)
HCC-2998 = assay: NCI-60 SRB screen; assay type: cell-based, human; conditions: Homo sapiens; HCC-2998; single dose 10^−5 M; read-out: Growth inhibition (%)
ACHN = assay: NCI-60 SRB screen; assay type: cell-based; conditions: Homo sapiens, single dose 10^−5 M, read-out: Growth inhibition (%)
HT-29 = assay: NCI-60 SRB screen; assay type: cell-based; conditions: Homo sapiens; HT-29; single dose 10^−5 M; read-out: Growth inhibition (%)
MOLT-4 = assay: NCI-60 SRB screen; assay type: cell-based; conditions: Homo sapiens; MOLT-4; single dose 10^−5 M; read-out: Growth inhibition (%)
NCI-H460 = assay: NCI-60 SRB screen; assay type: cell-based, human; conditions: Homo sapiens; NCI-H460; single dose 10^−5 M; read-out: Growth inhibition (%)
KM12 = assay: NCI-60 SRB screen; assay type: cell-based, human; conditions: Homo sapiens; KM12; single dose 10^−5 M; read-out: Growth inhibition (%)
HCT-116 = assay: NCI-60 SRB screen; assay type: cell-based, human; conditions: Homo sapiens; HCT-116; single dose 10^−5 M; read-out: Growth inhibition (%)
SF-268 = assay: NCI-60 SRB screen; assay type: cell-based, human; conditions: Homo sapiens; SF-268; single dose 10^−5 M; read-out: Growth inhibition (%)
CCRF-CEM = assay: NCI-60 SRB screen; assay type: cell-based; conditions: Homo sapiens, single dose 10^−5 M, read-out: Growth inhibition (%)
UACC-62 = assay: NCI-60 SRB screen; assay type: cell-based, human; conditions: Homo sapiens; UACC-62; single dose 10^−5 M; read-out: Growth inhibition (%)
HOP-62 = assay: NCI-60 SRB screen; assay type: cell-based, human; conditions: Homo sapiens; HOP-62; single dose 10^−5 M; read-out: Growth inhibition (%)
SR = assay: NCI-60 SRB screen; assay type: cell-based; conditions: Homo sapiens, single dose 10^−5 M, read-out: Growth inhibition (%)
SF-295 = assay: NCI-60 SRB screen; assay type: cell-based, human; conditions: Homo sapiens; SF-295; single dose 10^−5 M; read-out: Growth inhibition (%)
NCI-H322M = assay: NCI-60 SRB screen; assay type: cell-based, human; conditions: Homo sapiens, single dose 10^−5 M, read-out: Growth inhibition (%)
CAKI-1 = assay: NCI-60 SRB screen; assay type: cell-based, human; conditions: Homo sapiens; CAKI-1; single dose 10^−5 M; read-out: Growth inhibition (%)
MDA-MB-435 = assay: NCI-60 SRB screen; assay type: cell-based; conditions: Homo sapiens, MDA-MB-435, read-out: Growth inhibition (%)
UO-31 = assay: NCI-60 SRB screen; assay type: cell-based, human; conditions: Homo sapiens; UO-31; single dose 10^−5 M; read-out: Growth inhibition (%)
HOP-92 = assay: NCI-60 SRB screen; assay type: cell-based, human; conditions: Homo sapiens; HOP-92; single dose 10^−5 M; read-out: Growth inhibition (%)
OVCAR-8 = assay: NCI-60 SRB screen; assay type: cell-based, human; conditions: Homo sapiens; OVCAR-8; single dose 10^−5 M; read-out: Growth inhibition (%)
RXF 393 = assay: NCI-60 SRB screen; assay type: cell-based, human; conditions: Homo sapiens; RXF 393; single dose 10^−5 M; read-out: Growth inhibition (%)
NCI-H522 = assay: NCI-60 SRB screen; assay type: cell-based, human; conditions: Homo sapiens; NCI-H522; single dose 10^−5 M; read-out: Growth inhibition (%)
OVCAR-4 = assay: NCI-60 SRB screen; assay type: cell-based, human; conditions: Homo sapiens; OVCAR-4; single dose 10^−5 M; read-out: Growth inhibition (%)
[1] = tested on: panel of 60 cancer cell lines; assay: NCI-60 SRB screen, mean or range over the panel; assay type: cell-based, human; conditions: Homo sapiens; mean over the cell lines; single dose 10^−5 M; read-out: Mean growth inhibition (%)
LOX IMVI = assay: NCI-60 SRB screen; assay type: cell-based, human; conditions: Homo sapiens, single dose 10^−5 M, read-out: Growth inhibition (%)
TK-10 = assay: NCI-60 SRB screen; assay type: cell-based, human; conditions: Homo sapiens; TK-10; single dose 10^−5 M; read-out: Growth inhibition (%)
SK-MEL-5 = assay: NCI-60 SRB screen; assay type: cell-based, human; conditions: Homo sapiens; SK-MEL-5; single dose 10^−5 M; read-out: Growth inhibition (%)
SK-MEL-28 = assay: NCI-60 SRB screen; assay type: cell-based; conditions: Homo sapiens; SK-MEL-28; single dose 10^−5 M; read-out: Growth inhibition (%)
786-0 = assay: NCI-60 SRB screen; assay type: cell-based; conditions: Homo sapiens; 786-0; single dose 10^−5 M; read-out: Growth inhibition (%)
M14 = assay: NCI-60 SRB screen; assay type: cell-based, human; conditions: Homo sapiens; M14; single dose 10^−5 M; read-out: Growth inhibition (%)
UACC-257 = assay: NCI-60 SRB screen; assay type: cell-based, human; conditions: Homo sapiens, UACC-257; UACC-275 (so in the source); single dose 10^−5 M; read-out: Growth inhibition (%)
HL-60(TB) = assay: NCI-60 SRB screen; assay type: cell-based, human; conditions: Homo sapiens; HL-60 (TB); single dose 10^−5 M; read-out: Growth inhibition (%)
NCI/ADR-RES = assay: NCI-60 SRB screen; assay type: cell-based, human; conditions: Homo sapiens, single dose 10^−5 M, read-out: Growth inhibition (%)
COLO 205 = assay: NCI-60 SRB screen; assay type: cell-based, human; conditions: Homo sapiens; COLO 205; single dose 10^−5 M; read-out: Growth inhibition (%)
EKVX = assay: NCI-60 SRB screen; assay type: cell-based, human; conditions: Homo sapiens, single dose 10^−5 M, read-out: Growth inhibition (%)
IGROV1 = assay: NCI-60 SRB screen; assay type: cell-based, human; conditions: Homo sapiens, IGROV-1; IGROV1; single dose 10^−5 M; read-out: Growth inhibition (%)
NCI-H23 = assay: NCI-60 SRB screen; assay type: cell-based, human; conditions: Homo sapiens; NCI-H23; single dose 10^−5 M; read-out: Growth inhibition (%)
SW-620 = assay: NCI-60 SRB screen; assay type: cell-based; conditions: Homo sapiens; SW-620; single dose 10^−5 M; read-out: Growth inhibition (%)
K-562 = assay: NCI-60 SRB screen; assay type: cell-based, human; conditions: Homo sapiens, K562; K-562; single dose 10^−5 M; read-out: Growth inhibition (%)
NCI-H226 = assay: NCI-60 SRB screen; assay type: cell-based, human; conditions: Homo sapiens; NCI-H226; single dose 10^−5 M; read-out: Growth inhibition (%)

COc1ccc(C2NC(=O)C(Cl)c3c2sc2c(F)cccc32)cc1 (stereo not drawn) [Compound 4b, 4-Chloro-8-fluoro-1-(4-methoxyphenyl)-1,2-dihydro[1]benzothieno[2,3-c] pyridine-3(4H)-one] gave an inhibition at 10 µM (MALME-3M) of 10.8%, an inhibition at 10 µM (HCT-15) of 14.2% and an inhibition at 10 µM (SK-MEL-2) of -18.3%. The inhibition at 10 µM (SN12C) was 3.66%, the inhibition at 10 µM (OVCAR-3) was 0.61% and the inhibition at 10 µM (A549/ATCC) was 55.5%. For the same compound, the inhibition at 10 µM (HCC-2998) was -6.39%, the inhibition at 10 µM (ACHN) was -3.2% and the inhibition at 10 µM (HT-29) was -6.98%. It also gave an inhibition at 10 µM (MOLT-4) of 7.88%, an inhibition at 10 µM (NCI-H460) of 31.4% and an inhibition at 10 µM (KM12) of 7.6%. The inhibition at 10 µM (HCT-116) was 1.62%, the inhibition at 10 µM (SF-268) was 14.3% and the inhibition at 10 µM (CCRF-CEM) was -0.42%. For the same compound, the inhibition at 10 µM (UACC-62) was 8.74%, the inhibition at 10 µM (HOP-62) was 17.2% and the inhibition at 10 µM (SR) was 39.3%. For the same compound, the inhibition at 10 µM (SF-295) was 1.82%, the inhibition at 10 µM (NCI-H322M) was 22% and the inhibition at 10 µM (CAKI-1) was 17.7%. The inhibition at 10 µM (MDA-MB-435) was 33.7%, the inhibition at 10 µM (UO-31) was 71.7% and the inhibition at 10 µM (HOP-92) was 16.4%. The inhibition at 10 µM (OVCAR-8) was 2.95%, the inhibition at 10 µM (RXF 393) was 9.68% and the inhibition at 10 µM (NCI-H522) was 21.7%. For the same compound, the inhibition at 10 µM (OVCAR-4) was 7.51%, the inhibition at 10 µM [1] was 8.66% and the inhibition at 10 µM (LOX IMVI) was 6.46%. It also gave an inhibition at 10 µM (TK-10) of -38.1%, an inhibition at 10 µM (SK-MEL-5) of -0.07% and an inhibition at 10 µM (SK-MEL-28) of -0.07%. It also gave an inhibition at 10 µM (786-0) of -0.46%, an inhibition at 10 µM (M14) of 3.86% and an inhibition at 10 µM (UACC-257) of -6.58%. For the same compound, the inhibition at 10 µM (HL-60(TB)) was -5.26%, the inhibition at 10 µM (NCI/ADR-RES) was 9.18% and the inhibition at 10 µM (COLO 205) was -20.5%. For the same compound, the inhibition at 10 µM (EKVX) was 23%, the inhibition at 10 µM (IGROV1) was 4.86% and the inhibition at 10 µM (NCI-H23) was 6.41%. The inhibition at 10 µM (SW-620) was 6.49%, the inhibition at 10 µM (K-562) was 31.3% and the inhibition at 10 µM (NCI-H226) was 7.14%.
